Results reported in ChEMBL document CHEMBL1201862, “PubChem BioAssay data set” (2004).
The source made the active and inactive calls.

Key:
Cytochrome P450 2D6 = Cytochrome P450 2D6 (Homo sapiens, UniProt P10635);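 further: CYP2D6 member of a cytochrome P450 panel assay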
Prothrombin = Prothrombin (Homo sapiens, UniProt P00734); test: Thrombin 1536 HTS Dose Response Confirmation. [Related pubchem assays: 1046 (Thrombin 1536 HTS; hits were confirmed in this assay)]; type: functional
Large T antigen = Large T antigen (Simian virus 40, UniProt P03070); type: functional, Betapolyomavirus macacae;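 further: Confirmatory-stage PubChem screen for compounds that inhibit SV40 T antigen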
[1] = biological target: T1, Calpain-2 catalytic subunit (Sus scrofa, UniProt P43367); test: m-calpain protease blockers, concentration series – biochemical, fluorogenic peptide substrate, dose response (AID 1420); type: functional
T1 sequence (P43367 whole entry): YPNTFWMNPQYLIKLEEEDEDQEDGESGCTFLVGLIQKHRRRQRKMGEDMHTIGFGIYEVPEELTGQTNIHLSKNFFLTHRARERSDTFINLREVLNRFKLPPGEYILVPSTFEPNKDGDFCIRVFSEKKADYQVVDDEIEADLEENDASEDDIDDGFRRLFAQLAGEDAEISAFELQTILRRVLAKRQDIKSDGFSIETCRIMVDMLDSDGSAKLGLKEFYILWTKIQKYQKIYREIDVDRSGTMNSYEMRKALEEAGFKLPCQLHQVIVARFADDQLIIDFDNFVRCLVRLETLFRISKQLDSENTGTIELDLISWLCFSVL

[2] = biological target: T2, Polyadenylate-binding protein 1 (Homo sapiens, UniProt P11940); test: MLLE binding blockers, Cy5 peptide tracer – biochemical, fluorescence polarization, Cy5-PAM2 peptide, secondary, miRNA deadenylation inhibitor project, dose response (AID 602260); type: functional; conditions: read-out: IC50_Mean
[3] = biological target: T2, Polyadenylate-binding protein 1; test: MLLE domain peptide-binding blockers, IC50 – biochemical, fluorescence polarization, FITC-PAM2 peptide, dose response (AID 602259); type: functional; conditions: read-out: IC50_Mean
Cytochrome P450 2C9 = Cytochrome P450 2C9 (Homo sapiens, UniProt P11712)
[4] = microbe, parasite or virus in culture; type: functional; conditions: Mycobacterium tuberculosis
[5] = Luminescence Cell-Based Dose Retest to Confirm Inhibitors of Cancer Stem Cells. [Related pubchem assays (depositor defined):AID2717, AID2721]; type: functional; conditions: Homo sapiens
INS1 = test: INS-1E survival protection against cytokine death – cell-based, luminescence, retest, dose response (AID 449756); type: functional; conditions: Rattus norvegicus;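 further: cell death triggered by IL-1 beta plus TNF-alpha plus IFN-gamma mixture; protective hits raise ATP signal compared with cytokine alone wells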
Cytochrome P450 1A2 = biological target: T3, Cytochrome P450 1A2 (Homo sapiens, UniProt P05177);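 further: PubChem cytochrome P450 panel assay, CYP1A2 panel member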
T3 sequence (P05177 whole entry): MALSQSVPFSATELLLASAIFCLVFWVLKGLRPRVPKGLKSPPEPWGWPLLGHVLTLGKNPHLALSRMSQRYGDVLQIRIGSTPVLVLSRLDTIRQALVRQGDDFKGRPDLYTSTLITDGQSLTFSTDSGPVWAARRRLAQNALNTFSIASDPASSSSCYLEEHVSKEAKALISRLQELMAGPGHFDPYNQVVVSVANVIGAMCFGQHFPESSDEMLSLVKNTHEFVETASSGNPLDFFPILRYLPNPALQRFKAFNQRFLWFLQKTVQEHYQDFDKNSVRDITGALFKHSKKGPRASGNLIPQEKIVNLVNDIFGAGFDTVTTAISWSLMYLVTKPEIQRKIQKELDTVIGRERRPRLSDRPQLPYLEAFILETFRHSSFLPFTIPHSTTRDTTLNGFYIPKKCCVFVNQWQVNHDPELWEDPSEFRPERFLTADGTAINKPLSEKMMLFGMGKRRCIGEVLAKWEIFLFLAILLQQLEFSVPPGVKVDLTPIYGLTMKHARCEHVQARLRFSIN

[6] = viability of PTEN-deleted HCT116 cells – cell-based, HCT116 PTEN knockout, dose response (AID 1047); type: functional;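 further: HCT116 colon tumor cells with PTEN knocked out; cells exposed to compound for 60 hours before readout; potency for loss of cell viability measured by luminescence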
[7] = viability of HCT116 lacking mutant beta-catenin – cell-based, human colon tumor, dose response (AID 1045); type: functional;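 further: HCT116 colon tumor cells with beta catenin knocked out; cells exposed to compound for 60 hours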
P388/ADR = test: cells; type: functional; conditions: Mus musculus
SN12K1 = test: cells; type: functional; conditions: Homo sapiens
P388 = test: cells; type: functional; conditions: Mus musculus
Genome polyprotein = Genome polyprotein (dengue virus type 2, UniProt P29990); test: flavivirus cap methylation enzyme inhibition – biochemical, confirmation dose response, primary screen (AID 588689); type: functional
Nonstructural protein 1 = Nonstructural protein 1 (Influenza A virus, UniProt Q194T2); type: functional, Influenza A virus (A/California/07/2009(H1N1))
Chain of Nonstructural protein 1 (Q194T2 whole entry): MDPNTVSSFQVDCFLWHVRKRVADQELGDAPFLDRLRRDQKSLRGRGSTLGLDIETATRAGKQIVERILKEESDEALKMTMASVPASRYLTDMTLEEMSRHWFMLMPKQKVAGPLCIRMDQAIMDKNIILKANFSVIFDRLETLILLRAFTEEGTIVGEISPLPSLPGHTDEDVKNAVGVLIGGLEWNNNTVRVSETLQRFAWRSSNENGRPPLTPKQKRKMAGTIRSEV

Chain of Large T antigen (P03070 whole entry): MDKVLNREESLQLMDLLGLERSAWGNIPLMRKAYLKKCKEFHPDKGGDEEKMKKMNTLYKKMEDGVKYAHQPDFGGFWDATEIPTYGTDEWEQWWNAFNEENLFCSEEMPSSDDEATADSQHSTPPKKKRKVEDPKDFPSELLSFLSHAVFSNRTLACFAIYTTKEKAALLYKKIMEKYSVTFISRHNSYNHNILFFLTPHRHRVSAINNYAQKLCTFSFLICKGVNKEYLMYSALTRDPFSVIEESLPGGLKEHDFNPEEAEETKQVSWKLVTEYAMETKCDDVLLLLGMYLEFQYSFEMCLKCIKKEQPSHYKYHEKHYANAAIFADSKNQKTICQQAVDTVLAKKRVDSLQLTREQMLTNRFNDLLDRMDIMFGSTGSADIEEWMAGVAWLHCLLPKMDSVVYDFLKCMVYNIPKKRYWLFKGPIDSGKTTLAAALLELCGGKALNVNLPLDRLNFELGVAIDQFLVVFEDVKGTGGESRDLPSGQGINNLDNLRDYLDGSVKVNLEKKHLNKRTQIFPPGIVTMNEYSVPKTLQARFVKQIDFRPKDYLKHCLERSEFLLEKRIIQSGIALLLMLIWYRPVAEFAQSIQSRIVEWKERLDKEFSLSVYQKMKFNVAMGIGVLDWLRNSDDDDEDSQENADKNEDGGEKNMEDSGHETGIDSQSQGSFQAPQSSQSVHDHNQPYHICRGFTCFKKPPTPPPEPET
Chain of Cytochrome P450 2D6 (P10635 whole entry): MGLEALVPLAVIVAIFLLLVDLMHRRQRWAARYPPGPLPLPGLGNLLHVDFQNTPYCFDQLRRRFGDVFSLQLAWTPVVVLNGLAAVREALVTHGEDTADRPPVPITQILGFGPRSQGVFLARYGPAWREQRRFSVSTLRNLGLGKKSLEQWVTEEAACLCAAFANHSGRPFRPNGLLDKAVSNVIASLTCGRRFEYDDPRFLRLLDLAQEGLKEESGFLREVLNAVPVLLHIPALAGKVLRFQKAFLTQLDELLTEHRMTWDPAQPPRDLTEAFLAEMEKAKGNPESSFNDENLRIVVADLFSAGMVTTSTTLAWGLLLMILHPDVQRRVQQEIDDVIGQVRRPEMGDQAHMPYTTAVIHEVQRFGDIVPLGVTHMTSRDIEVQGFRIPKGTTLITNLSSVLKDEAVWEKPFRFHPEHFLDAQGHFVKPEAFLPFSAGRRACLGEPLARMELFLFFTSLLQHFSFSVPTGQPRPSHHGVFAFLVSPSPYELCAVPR
Chain of Cytochrome P450 2C9 (P11712 whole entry): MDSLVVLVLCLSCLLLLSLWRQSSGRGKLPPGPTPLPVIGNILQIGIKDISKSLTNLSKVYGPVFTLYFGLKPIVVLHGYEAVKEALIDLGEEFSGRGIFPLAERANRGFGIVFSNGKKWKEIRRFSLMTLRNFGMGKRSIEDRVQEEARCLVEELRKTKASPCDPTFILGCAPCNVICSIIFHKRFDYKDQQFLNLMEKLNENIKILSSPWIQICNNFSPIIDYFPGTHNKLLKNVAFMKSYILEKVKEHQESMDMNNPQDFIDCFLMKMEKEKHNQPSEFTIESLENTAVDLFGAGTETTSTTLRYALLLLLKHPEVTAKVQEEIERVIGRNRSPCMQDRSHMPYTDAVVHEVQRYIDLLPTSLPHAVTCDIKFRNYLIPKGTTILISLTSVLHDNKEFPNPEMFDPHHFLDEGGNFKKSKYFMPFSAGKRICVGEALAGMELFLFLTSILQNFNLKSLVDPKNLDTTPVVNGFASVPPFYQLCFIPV
T2 sequence (P11940 whole entry, the tested form may be a part): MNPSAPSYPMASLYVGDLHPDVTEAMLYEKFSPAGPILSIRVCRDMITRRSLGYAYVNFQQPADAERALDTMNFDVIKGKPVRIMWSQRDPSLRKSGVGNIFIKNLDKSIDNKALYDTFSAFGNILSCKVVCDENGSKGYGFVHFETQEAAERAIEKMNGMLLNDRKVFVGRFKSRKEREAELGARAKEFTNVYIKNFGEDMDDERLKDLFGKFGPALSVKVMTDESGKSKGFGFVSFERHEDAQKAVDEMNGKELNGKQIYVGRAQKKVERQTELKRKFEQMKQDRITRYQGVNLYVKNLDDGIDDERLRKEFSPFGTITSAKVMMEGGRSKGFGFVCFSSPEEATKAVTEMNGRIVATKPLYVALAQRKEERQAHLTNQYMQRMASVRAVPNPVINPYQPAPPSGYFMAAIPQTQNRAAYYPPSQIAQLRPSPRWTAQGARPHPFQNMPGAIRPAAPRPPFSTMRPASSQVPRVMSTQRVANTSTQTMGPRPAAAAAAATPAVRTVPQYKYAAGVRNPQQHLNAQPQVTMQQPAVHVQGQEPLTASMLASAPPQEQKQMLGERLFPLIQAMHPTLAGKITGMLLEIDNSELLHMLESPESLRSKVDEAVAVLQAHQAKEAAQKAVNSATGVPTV
Chain of Genome polyprotein (P29990 2492-3391 limits assumed): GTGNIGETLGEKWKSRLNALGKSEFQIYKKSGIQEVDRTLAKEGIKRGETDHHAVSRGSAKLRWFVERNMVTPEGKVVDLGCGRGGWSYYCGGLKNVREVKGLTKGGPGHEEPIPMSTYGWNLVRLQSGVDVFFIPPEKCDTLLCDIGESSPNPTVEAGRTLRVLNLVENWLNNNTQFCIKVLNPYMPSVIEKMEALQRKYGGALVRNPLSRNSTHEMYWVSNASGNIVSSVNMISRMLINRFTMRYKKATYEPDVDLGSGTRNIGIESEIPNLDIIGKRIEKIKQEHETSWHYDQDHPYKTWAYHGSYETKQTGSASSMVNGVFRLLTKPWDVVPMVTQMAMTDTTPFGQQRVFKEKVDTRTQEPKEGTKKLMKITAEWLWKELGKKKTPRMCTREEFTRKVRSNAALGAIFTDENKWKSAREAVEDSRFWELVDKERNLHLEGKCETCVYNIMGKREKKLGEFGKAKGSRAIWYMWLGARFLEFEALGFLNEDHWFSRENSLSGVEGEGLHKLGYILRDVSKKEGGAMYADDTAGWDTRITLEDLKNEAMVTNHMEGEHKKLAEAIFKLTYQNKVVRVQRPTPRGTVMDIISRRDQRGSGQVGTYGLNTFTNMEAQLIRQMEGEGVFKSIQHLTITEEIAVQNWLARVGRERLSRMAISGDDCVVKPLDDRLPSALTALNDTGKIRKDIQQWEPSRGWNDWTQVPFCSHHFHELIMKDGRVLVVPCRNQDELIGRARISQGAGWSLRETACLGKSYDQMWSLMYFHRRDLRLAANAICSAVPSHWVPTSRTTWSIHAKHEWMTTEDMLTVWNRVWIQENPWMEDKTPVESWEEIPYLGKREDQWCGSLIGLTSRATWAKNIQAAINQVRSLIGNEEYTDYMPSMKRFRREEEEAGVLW

CCC(=O)Nc1ccc(N2CCN(CC)CC2)c(Cl)c1
AC50 (Cytochrome P450 2D6): 0.0447 µM (inconclusive)

O=C(COC(=O)C12CC3CC(CC(O)(C3)C1)C2)NCCc1ccc(Cl)cc1
IC50 (Prothrombin): > 50 µM (not active)

COc1ccc(-n2c(=O)c3c4c(sc3n3c(=S)[nH]nc23)CCC4)cc1
IC50 (Large T antigen): 20.4 µM (active)

CC(C)Cn1c(N)c(C(=O)COC(=O)c2ccc(F)cc2)c(=O)n(C)c1=O
IC50 [1]: 4.8 µM (not active)

CC(=O)c1ccc(NC(=O)c2noc(C(C)C)c2[N+](=O)[O-])cc1
IC50 [1]: 3.66 µM (active)

O=C1CC(c2ccccc2)Cc2nc(N3CCc4ccccc4C3)ncc21 (configuration not stated)
IC50 [1]: 6.43 µM (not active) | IC50 [2]: > 66 µM (inactive) | IC50 [3]: > 66 µM (inactive)

CN(C)c1ccc(-c2cncnc2NCc2cccnc2)cc1
AC50 (Cytochrome P450 2D6): 12.6 µM (inconclusive) | AC50 (Cytochrome P450 2C9): 0.501 µM (inconclusive)

CC(Cc1ccccc1Sc1ccc(O)cc1)N(C)C (configuration not stated)
IC50 (Large T antigen): 71.9 µM (active)

CCCC[C@@H](CN[C@H](C)CNC)NCC1CCC(C(C)(C)C)CC1 (some centres not stated)
CC50 [4]: 12.7 µM (active) | AC50 [5]: 6.55 µM (active) | AC50 (INS1): 6.4 µM (active)

O=C(c1csnn1)N1CCC2(CC1)CCN(c1ccccn1)CC2
AC50 (Cytochrome P450 2D6): 20 µM (inconclusive) | AC50 (Cytochrome P450 1A2): 25.1 µM (inconclusive) | AC50 (Cytochrome P450 2C9): 20 µM (inconclusive)

CCC(=C(c1ccc(OC)cc1)c1ccc(OC)cc1)c1cn(CC(O)CN2CCN(C)CC2)c2ccccc12 (configuration not stated)
EC50 [6]: 7.95 µM (active) | EC50 [7]: 6.34 µM (active)

C[N+](C)(C)CCOC(=O)/C=C/c1c[nH]cn1
GI50 (P388/ADR): > 316 µM (inactive) | GI50 (SN12K1): > 500 µM (inactive) | GI50 (P388): > 500 µM (inactive)

CC1=CC(=O)C(C(C)C)=C/C1=C(\c1cc(C(C)C)c(OP(=O)(O)O)cc1C)c1ccccc1C(=O)O
AC50 [5]: 2.27 µM (active) | IC50 (Genome polyprotein): 33.4 µM (active)

O=S(=O)(O)c1cc(/N=N/c2cc(S(=O)(=O)O)c3ccccc3c2O)ccc1/C=C/c1ccc(/N=N/c2cc(S(=O)(=O)O)c3ccccc3c2O)cc1S(=O)(=O)O
GI50 (P388/ADR): 36.6 µM (inactive) | GI50 (SN12K1): > 78.9 µM (inactive) | GI50 (P388): > 100 µM (inactive)

O=CC(NC(=O)N(CCCl)N=O)C(O)C(O)C(O)CO (configuration not stated)
GI50 (P388/ADR): 79.6 µM (inactive) | GI50 (SN12K1): 760 µM (inactive) | GI50 (P388): 97.7 µM (inactive)

CC(=O)c1c(O)n(Nc2nc(C)cc(C)n2)c(C)cc1=O
IC50 (Nonstructural protein 1): 12.9 µM (active)

O=C(OC[C@H]1O[C@@H](OC(=O)c2cc(O)c(O)c(OC(=O)c3cc(O)c(O)c(O)c3)c2)[C@H](OC(=O)c2cc(O)c(O)c(OC(=O)c3cc(O)c(O)c(O)c3)c2)[C@@H](OC(=O)c2cc(O)c(O)c(OC(=O)c3cc(O)c(O)c(O)c3)c2)[C@@H]1OC(=O)c1cc(O)c(O)c(OC(=O)c2cc(O)c(O)c(O)c2)c1)c1cc(O)c(O)c(OC(=O)c2cc(O)c(O)c(O)c2)c1 [TANNIC ACID]
IC50 (Large T antigen): < 0.16 µM (active)
